# Source: patent US20060030611A1, “Enoximone sulfoxide enantiomers and their use in the treatment of PDE-III mediated diseases” (Myogen, Inc., priority 2004, published 2006)
# Where two headings read alike, the source gives them in different places.
# Columns and labels:
# [1] = tested on: trabeculae from the right ventricular free wall of explanted human hearts; experiment: Peak contractile force of isolated human right ventricular trabeculae in muscle bath; type: cell-based; conditions: 37° C., 1.0 Hz field stimulation, increasing concentrations
# Description: Explanted human hearts were obtained from transplant recipients (n=7) and from nonfailing donor hearts (n=1). After excision, hearts were placed immediately into ice cold Tyrode's solution and aerated with 95% O2 and 5% CO2. Trabeculae between 1-3 mm in width and 7-10 mm in length were excised from the right ventricular free wall. Subsequently trabeculae were mounted in a multi-chamber muscle bath in oxygenated Tyrode's solution at 37° C. The trabeculae were placed under 1 gram of resting tension and a field stimulation of 1.0 Hz. […] Peak contractile forces were recorded at 10 minute intervals for a total of 1½ hours. Following experimentation, trabeculae were frozen in liquid N2.
# [2] = molecular target: T1, PDE-III isolated from human platelets (Homo sapiens, UniProt Q14432); experiment: PDE-III inhibition, [3H]cAMP substrate; type: biochemical; conditions: triplicate at three concentrations over log scale, semi-quantitative
# T1 construct: PDE-III isolated from human platelets; from tissue; host or cells: human platelets
# T1 sequence (Q14432 whole entry): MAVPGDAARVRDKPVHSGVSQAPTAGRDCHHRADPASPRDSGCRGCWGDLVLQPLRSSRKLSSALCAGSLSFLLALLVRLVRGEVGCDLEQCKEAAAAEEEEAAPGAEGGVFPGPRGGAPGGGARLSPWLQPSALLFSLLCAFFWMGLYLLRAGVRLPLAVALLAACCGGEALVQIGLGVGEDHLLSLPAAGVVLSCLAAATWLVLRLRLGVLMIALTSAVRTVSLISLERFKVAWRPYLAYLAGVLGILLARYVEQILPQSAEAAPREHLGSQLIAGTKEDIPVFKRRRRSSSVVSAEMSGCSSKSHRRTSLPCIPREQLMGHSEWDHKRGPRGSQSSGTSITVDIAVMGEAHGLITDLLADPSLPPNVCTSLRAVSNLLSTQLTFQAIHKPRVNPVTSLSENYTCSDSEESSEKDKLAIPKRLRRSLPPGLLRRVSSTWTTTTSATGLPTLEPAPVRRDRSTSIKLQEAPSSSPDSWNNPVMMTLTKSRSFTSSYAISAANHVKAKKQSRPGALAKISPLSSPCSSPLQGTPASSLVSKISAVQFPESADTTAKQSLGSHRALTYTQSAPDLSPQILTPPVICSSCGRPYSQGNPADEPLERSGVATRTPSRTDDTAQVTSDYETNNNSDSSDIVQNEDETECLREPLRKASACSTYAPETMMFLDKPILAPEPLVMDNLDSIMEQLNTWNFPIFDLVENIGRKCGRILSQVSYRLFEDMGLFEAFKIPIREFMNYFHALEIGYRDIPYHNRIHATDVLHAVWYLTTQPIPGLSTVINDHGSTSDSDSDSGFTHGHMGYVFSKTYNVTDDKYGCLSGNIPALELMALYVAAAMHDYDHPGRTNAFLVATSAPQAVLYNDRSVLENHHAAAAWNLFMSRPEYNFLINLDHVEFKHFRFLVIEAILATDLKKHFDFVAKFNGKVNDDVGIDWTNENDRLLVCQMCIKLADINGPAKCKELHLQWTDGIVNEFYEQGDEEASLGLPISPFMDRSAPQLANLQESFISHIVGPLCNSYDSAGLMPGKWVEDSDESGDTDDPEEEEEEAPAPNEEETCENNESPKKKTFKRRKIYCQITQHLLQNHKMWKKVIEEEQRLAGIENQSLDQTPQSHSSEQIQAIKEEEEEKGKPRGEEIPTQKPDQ
# Description: Enoximone Sulfoxide enantiomer was tested for its ability to inhibit the action of PDE-III isolated from human platelets. The substrate was [^3H]cAMP+cAMP, which is converted by PDE-III to […] and then […] can be quantified. Assays were done in triplicate at three different concentrations over log scale, allowing semi-quantitative measurement of IC50.
# [3] = cited from earlier work; for average steady-state plasma concentration: oral
# PDE-III = conditions: cited from earlier work
# men who suffer from ED = conditions: ED of psychogenic or organic etiology, clinical studies; cited from earlier work
smiles,measurement,setting,value
"Cc1[nH]c(=O)[nH]c1C(=O)c1ccc([S@@+](C)[O-])cc1 [(R)-(+)-enantiomer of enoximone sulfoxide, 1,3-Dihydro-4-methyl-5-[(4-methylsulfinyl)-benzoyl]-2H-imidazol-2-one hydrate]","peak contractile force (net, T=0 baseline subtracted)",[1],550 mg of tension
same,IC50,[2],107 µM
"CSc1ccc(C(=O)c2[nH]c(=O)[nH]c2C)cc1 [Enoximone, 1,3-Dihydro-4-methyl-5-[4-(methylthio)benzoyl]-2H-imidazol-2-one]",average steady-state plasma concentration,[3]; 50 mg every 8 hours,115 ± 40 ng/mL
same,average steady-state plasma concentration,[3]; 100 mg every 8 hours,190 ± 78 ng/mL
same,mean clearance,[3]; patients with cardiac failure,about 10 ml/min/kg
same,Bioavailability,[3]; single oral dose of 3 mg/kg,about 55%
CC(C)NCC(O)c1ccc(O)c(O)c1 (stereo not shown) [Isoproterenol],"peak contractile force (net, T=0 baseline subtracted)",[1],> 1000 mg of tension
"Cc1[nH]c(=O)[nH]c1C(=O)c1ccc([S+](C)[O-])cc1.O (stereo not shown) [Sulfoxide Metabolite 27996, 1,3-Dihydro-4-methyl-5-[(4-methylsulfinyl)-benzoyl]-2H-imidazol-2-one hydrate]","peak contractile force (net, T=0 baseline subtracted)",[1],175 mg of tension
"CCCc1nn(C)c2c(=O)[nH]c(-c3cc(S(=O)(=O)N4CCN(C)CC4)ccc3OCC)nc12 [sildenafil, 5-[2-ethoxy-5-(4-methylpiperazin-1-ylsulphonyl)phenyl]-1-methyl-3-n-propyl-6,7-dihydro-1H-pyrazolo[4,3-d]pyrimidin-7-one]",inhibition of PDE-III,PDE-III,negligible inhibition
same,men with improved sexual function,men who suffer from ED,about 70%
